In patent US20190030009A1, “COMPOUNDS AND COMPOSITIONS FOR THE TREATMENT OF CRYPTOSPORIDIOSIS” (Novartis AG, priority 2016, published 2019):

Legend:
Cryptosporidium hominis = assay: Cytopathic effect (CPE) based assay, C. hominis infected HCT-8 cells; details: HCT-8 host cell viability (CellTiter-Glo), 48 hours treatment, read-out: Ch CPE EC50
Method: (§1) Human ileocecal colorectal adenocarcinoma cells (HCT-8 [HRT-18] ATCC, CCL-34) were maintained in T-175 flasks (Corning, 431080) in complete growth medium (RPMI-1640 medium (Gibco, 11875) supplemented with 10% heat-inactivated horse serum (Gibco, 26050), 1×MEM non-essential amino acids (Gibco, 11140), 10 mM HEPES (Gibco, 15630), 100 units/mL penicillin, and 100 units/mL streptomycin) at 37° C. and 5% CO2 in a humidified incubator. Cultures were passaged twice weekly using 10 mL of 1×Phosphate-Buffered Saline (PBS) without Ca^2+ and Mg^2+ (Gibco, 20012) for washing and 3-5 mL per T-175 flask of TrypLE Express Enzyme (Gibco, 12604) for dissociation of adherent cells.
Cryptosporidium hominis oocysts were purchased from the Tufts University Cummings School of Veterinary Medicine (courtesy of Dr. Saul Tzipori). C. hominis oocysts were purified from infected gnotobiotic piglet feces and stored in PBS solution containing 0.01% Tween-20, 100 units/mL penicillin and 100 units/mL gentamicin. C. parvum and C. hominis oocysts less than three months old from the date of shedding were used in infection experiments.
(§2) Excystation and infection protocols were developed following established methods with some modifications (Gut & Nelson, 1999, Upton et aL, 1995, Bessoff et aL, 2013). Briefly, oocysts were primed in 1 mL of 10 mM hydrochloric acid in 1× Hank's Balanced Salt Solution (HBSS) (Gibco, 14025) for 10 minutes with agitation at 1000 rpm, 37° C. on an Eppendorf thermomixer, then washed twice with 1 mL of room temperature non-acidic 1× HBSS by centrifugation at 13,000 rpm for 3 minutes at 25° C. Primed oocysts were further excysted at a concentration of 1×10^6 oocysts/μL in parasite infection medium consisting of a pre-warmed and pre-gassed 1:1 formulation of Leibovitz's L-15 medium (Gibco, 11415) and UltraCULTURE medium (Lonza, 12-725F) supplemented with 2 mM sodium taurocholate (Sigma, 86339-1), 10% heat-inactivated horse serum, and 200 μM L-ascorbic acid (Sigma, 95210) at 25° C. for 10 minutes. HCT-8 monolayer cells were infected with excysted cryptosporidium at a specified multiplicity of infection (MOI). All dilutions for subsequent assays were performed in parasite infection medium without sodium taurocholate. Pre-excysted oocysts were enumerated microscopically using a C-Chip disposable hemocytometer (NanoEnTek, DHC-N01).
(§3) Compound powders were dissolved in neat DMSO (Fisher, D4121) to 10 mM and stored at 4° C. prior to dilution into source plates. Dilutions were carried out using a Microlab STAR liquid handler (Hamilton) to obtain compound source plates containing the ten-point or eight-point three fold dilutions starting from 10 mM in duplicates. Source plates were stored at 4° C. prior to spotting into assay plates. Before administration, all compound source plates were equilibrated to room temperature. A specified volume of compounds from source plate were spotted to assay plate using an Echo Acoustic liquid handler (LABCYTE, 550) so that the final DMSO concentration was less than 0.5%. Each assay plate a specified number of DMSO-treated negative control wells and a well-studied potent active compound at 100 nM as positive control. As a quality control, all positive and negative-control wells were used to calculate a Z′-value and signal to noise ratio (S:N) for each plate.
Cryptosporidium spp are obligate-intracellular parasites that infect intestinal epithelial cells and the host cell is killed upon parasite egress. […] The loss of epithelial cells is due to both rapid parasite invasion/multiplication/egress and also pro-inflammatory immune response (Adams et al., 1994, Griffiths et al., 1994). We have observed a consistent cytopathic effect (CPE) in HCT-8 cells with C. spp infection the loss of viability of the host cells using CellTiter-Glo reagent.
Confluent HCT-8 cells in T-175 flasks were directly infected with excysted oocysts at an MOI (host to parasite) of 1:2 for C. parvum and 1:4 for C. hominis. […]

Cryptosporidium parvum = assay: Cytopathic effect (CPE) based assay, C. parvum infected HCT-8 cells; details: HCT-8 host cell viability (CellTiter-Glo), 48 hours treatment, read-out: Cp CPE EC50
Outline: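 HCT-8 cells were batch-infected with excysted C. parvum (Iowa isolate) oocysts at MOI 1:2 (host:parasite) for 3 h at 37 °C, then seeded and incubated 24 h before compound addition. Compounds were given as 3-fold dilution series (final DMSO <0.5%). Host-cell loss (cytopathic effect) was read as viability with CellTiter-Glo.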

C. parvum = assay: High content imaging assay, C. parvum infected HCT-8 cells; format: cell-based; details: Cryptosporidium parvum, percentage of infected HCT-8 cells, 48 hours treatment, read-out: Cp HCl IC50
Method: as §1
Cryptosporidium parvum oocysts purchased from the Sterling Laboratory, University of Arizona (Iowa isolate) were purified from infected calf feces using discontinuous sucrose and cesium chloride centrifugation gradients and stored in PBS solution containing 0.01% Tween 20, 100 units/mL penicillin and 100 units/mL gentamicin.
as §2, §3
Imaging assays were developed following established Cryptosporidium spp labeling and in vitro infection models with some modifications (Bessoff et aL, 2013, Gut & Nelson, 1999). Briefly, 2×10^4 HCT-8 cells per well were seeded into 384-well, flat black clear-bottom OPERA assay plates (Greiner, 789071-G) at 20 μL per well in complete growth medium using a Multidrop Combi liquid handler (ThermoScientific, 5840300) and standard tube dispensing cassette (ThermoScientific, 24072670) and incubated for 24 hours at 37° C. The HCT-8 cells were infected with 10 μL per well of 1×10^4 excysted C. parvum oocysts (host to parasite MOI of 1:0.5) or 10 μL per well of 4×10^4 excysted C. hominis oocysts (MOI 1:2) in parasite infection medium using the Multidrop and incubated at 37° C. […]

Row | SMILES | EC50 (Cryptosporidium hominis) | EC50 (Cryptosporidium parvum) | IC50 (C. parvum)
1 | CNC(=O)c1ccc(-c2cnn3ccc(C(=O)N(c4ccc(C#N)cn4)C4CCC4)cc23)cc1 [Example 112] | 351 nM | 270 nM | –
2 | N#Cc1ccc(N(C(=O)c2ccn3ncc(-c4ccc(C(N)=O)cc4)c3c2)C2CC2)nc1 [Example 120] | 276 nM | 172 nM | –
3 | CNC(=O)c1ccc(-c2cnn3ccc(C(=O)N(NC)c4ccc(C#N)cc4)cc23)cn1 [Example 92] | – | 310 nM | 94 nM
4 | CNC(=O)c1ccc(-c2cnn3ccc(C(=O)N(c4ccc(C(F)(F)F)cn4)C(C)C)cc23)cc1 [Example 153] | 70 nM | 39 nM | 11 nM
5 | N#Cc1ccc(N(C(=O)c2ccn3ncc(-c4ccc(C(=O)NC5CC5)cc4)c3c2)C2CC2)nc1 [Example 123] | 3150 nM | 2990 nM | –
6 | CCN(C(=O)c1ccn2ncc(-c3ccc(C(=O)NC)cc3)c2c1)c1ccc(C#N)cn1 [Example 90] | – | 68 nM | 52 nM
7 | CNC(=O)c1ccc(-c2cnn3ccc(N(C)C(=O)c4ccc(C#N)cn4)cc23)cc1 [Example 94] | 456 nM | 368 nM | 123 nM
8 | CCN(C(=O)c1ccn2ncc(-c3ccc(C(=O)NC)cc3)c2c1)c1ccc(C(F)(F)F)cn1 [Example 96] | – | 50 nM | 24 nM
9 | CC(C)NC(=O)c1ccc(-c2cnn3ccc(C(=O)N(c4ccc(C#N)cn4)C4CC4)cc23)cc1 [Example 121] | > 20000 nM | 8640 nM | –
10 | CNC(=O)c1ccc(-c2cnn3ccc(C(=O)N(c4ccc(C#N)c(OC)n4)C4CC4)cc23)cc1 [Example 149] | – | 55 nM | 32 nM
11 | N#Cc1ccc(N(C(=O)c2ccn3ncc(-c4ccc(C(=O)NC5COC5)cc4)c3c2)C2CC2)nc1 [Example 131] | 4110 nM | 2730 nM | –
12 | CNC(=O)c1ccc(-c2cnn3ccc(C(=O)N(c4ccc(Cl)cn4)C4CC4)cc23)cc1 [Example 124] | – | 103 nM | 60 nM
13 | CCN(C(=O)c1ccn2ncc(-c3ccc(C(=O)NC)nc3)c2c1)c1ccc(C#N)cn1 [Example 150] | – | 1070 nM | 382 nM
14 | CCNC(=O)c1ccc(-c2cnn3ccc(C(=O)N(c4ccc(C#N)cn4)C4CC4)cc23)cc1 [Example 127] | 71 nM | 102 nM | 62 nM
15 | CNC(=O)c1ccc(-c2cnn3ccc(C(=O)N(c4ccc(C#N)cn4)C(C)C)cc23)cc1 [Example 91] | 139 nM | 129 nM | –
16 | CNC(=O)c1ccc(-c2cnn3ccc(C(=O)N(c4ccc(C(F)(F)F)cn4)C4CCC4)cc23)cc1 [Example 160] | – | 85 nM | 29 nM
